According to US6919092B2, “Method for the management of incontinence” (ALZA Corporation, priority 1995, dated 2005):

Assay: Multiple dose crossover clinical pharmacokinetic study, IR vs CR oxybutynin
Details: plasma

**Q.** For `CCNCC#CCOC(=O)C(O)(c1ccccc1)C1CCCCC1` (stereo not shown) [DESOXY], which “t1/2 life of DESOXY compared to OXY” value is on record?
**A.** The value was “shorter”.
